Data reported in patent publication US20120157448A1, “COMPOUNDS FOR TREATING NEURODEGENERATIVE DISEASES” (priority 2010, published 2012).

biological target: T1, BACE-1 (Homo sapiens, UniProt P56817); assay: Cellular BACE-1 inhibition assay (in vitro cellular Amyloidβ 1-40 production, HTRF immunoassay); type: cell-based; details: inhibition of Amyloidβ 1-40 production; HEK-293 cells stably transfected with wild type APP695; 48 hours incubation; average where tested more than once; read-out: IC50
T1 construct: endogenous in cells; host or cells: HEK-293 cells stably transfected with wild type APP695
T1 sequence (P56817 46-501): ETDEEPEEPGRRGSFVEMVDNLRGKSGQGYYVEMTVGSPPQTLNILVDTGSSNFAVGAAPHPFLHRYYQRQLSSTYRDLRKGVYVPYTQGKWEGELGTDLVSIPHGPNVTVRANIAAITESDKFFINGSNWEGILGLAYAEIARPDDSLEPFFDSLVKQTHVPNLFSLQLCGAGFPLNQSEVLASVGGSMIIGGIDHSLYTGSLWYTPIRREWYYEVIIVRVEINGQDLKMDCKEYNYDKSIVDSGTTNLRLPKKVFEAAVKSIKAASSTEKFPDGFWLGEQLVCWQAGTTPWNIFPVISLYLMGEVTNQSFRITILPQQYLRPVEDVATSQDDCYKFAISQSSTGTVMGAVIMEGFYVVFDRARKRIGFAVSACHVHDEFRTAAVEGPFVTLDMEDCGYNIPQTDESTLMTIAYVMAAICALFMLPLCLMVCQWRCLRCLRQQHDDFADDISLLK
Method: Materials and Methods: HEK-293 cells stably transfected with a DNA construct containing the coding sequence for the wild type APP695 sequence were grown in Dulbecco's Modified Eagle Medium (“DMEM”) supplemented with 10% fetal bovine serum, penicillin/streptomycin and 150 μg/mL G418. Cells were plated in 96-well plates at 35,000 cells/well and allowed to attach for 8-12 hours. Media was changed to DMEM supplemented with 10% fetal bovine serum, penicillin/streptomycin 15 minutes prior to compound addition. Diluted compounds were then added at a final concentration of 0.5% DMSO. After 48 hours, 4 μL of media from each well was added to a corresponding well of a 384 well plate (Perkin Elmer Cat#6008280) containing the HTRF reagents. HTRF reagents were obtained from the CisBio Amyloid β 1-40 peptide assay kit (Cat#62B40PEC) and were prepared as follows anti-peptide β (1-40)-Cryptate and anti-peptide […] were stored in 2 plate aliquots at −80° C. Diluent and Reconstitution buffer were stored at 4° C. Aliquots of the two antibodies were diluted 1:100 with Reconstitution buffer, and this mixture was diluted 1:2 with Diluent. 12 μL of the reagent mixture was added to the required wells of the 384 well assay plate. The assay plate was incubated at 4° C. for 17 hours and then analyzed for fluorescence at 665 and 620 nm. The following compounds were tested in the above assay. Some compounds were tested more than once, and the average is reported below.

Compound | IC50 [nM]
NC1=N[C@@]2(CS1)c1cc(-c3cncnc3)ccc1O[C@H]1CC[C@H](O)C[C@@H]12 [Example 146, (2′S,4R,4a′S,9a′R)-2-amino-7′-(pyrimidin-5-yl)-1′,2′,3′,4′,4a′,9a′-hexahydro-5H-spiro[thiazole-4,9′-xanthen]-2′-ol] | 192
NC1=N[C@@]2(CO1)c1cc(-c3cncnc3)ccc1O[C@H]1CC[C@H](OCC3CC3)C[C@@H]12 [Example 150, (2′S,4R,4a′S,9a′R)-2′-(cyclopropylmethoxy)-7′-(pyrimidin-5-yl)-1′,2′,3′,4′,4a′,9a′-hexahydro-5H-spiro[oxazole-4,9′-xanthen]-2-amine] | 100
N#Cc1cc(Cl)cc(-c2ccc3c(c2)[C@@]2(COC(N)=N2)[C@H]2C[C@@H](OC4CCC4)CC[C@@H]2O3)c1 [Example 156, 3-((2′S,4R,4a′S,9a′R)-2-amino-2′-cyclobutoxy-1′,2′,3′,4′,4a′,9a′-hexahydro-5H-spiro[oxazole-4,9′-xanthen]-7′-yl)-5-chlorobenzonitrile] | 92.8
NC1=NC2(CO1)c1cc(-c3cccnc3F)ccc1OC1CCC3(CCO3)C[C@@H]12 (stereo partly drawn) [Example 199] | 630
C[C@@]12CCO[C@@H]1[C@@]1(COC(N)=N1)c1cc(-c3cc(F)cc(Cl)c3)ccc1O2 [Example 266, (3aR,4′S,9aR)-7-(3-chloro-5-fluorophenyl)-3a-methyl-2,3,3a,9a-tetrahydro-5′H-spiro[furo[3,2-b]chromene-9,4′-oxazol]-2′-amine] | 5290

Now those with a lower IC50, led by results:

IC50 [nM] | Compound
76.1 | CCO[C@H]1CC[C@@H]2Oc3ccc(-c4cc(F)cc(C#N)c4)cc3C3(COC(N)=N3)[C@H]2C1 (stereo partly drawn) [Example 159, 3-((2′S,4a′S,9a′R)-2-amino-2′-ethoxy-1′,2′,3′,4′,4a′,9a′-hexahydro-5H-spiro[oxazole-4,9′-xanthen]-7′-yl)-5-fluorobenzonitrile]
71.4 | CC(C)O[C@H]1CCC2Oc3ccc(-c4cccnc4F)cc3C3(COC(N)=N3)[C@H]2C1 (stereo partly drawn) [Example 155, (2′S,4a′S,9aR)-7′-(2-fluoropyridin-3-yl)-2′-isopropoxy-1′,2′,3′,4′,4a′,9a′-hexahydro-5H-spiro[oxazole-4,9′-xanthen]-2-amine]
48.3 | N#Cc1cc(Cl)cc(-c2ccc3c(c2)[C@@]2(COC(N)=N2)[C@H]2C[C@@H](O)CC[C@@H]2O3)c1 [Example 140, 3-((2′S,4R,4a′S,9a′R)-2-amino-2′-hydroxy-1′,2′,3′,4′,4a′,9a′-hexahydro-5H-spiro[oxazole-4,9′-xanthen]-7′-yl)-5-chlorobenzonitrile]
33.5 | COC1CCC2Oc3ccc(-c4cncc(Cl)c4)cc3C3(COC(N)=N3)C2C1 (stereo not drawn) [Example 54, 7′-(5-chloropyridin-3-yl)-2′-methoxy-1′,2′,3′,4′,4a′,9a′-hexahydro-5H-spiro[oxazole-4,9′-xanthen]-2-amine]
